“Also recorded” adds a separate entry of the source.
Legend:
Assay type in all cases: in vitro ADME
CYP1A2h = biological target: T1, CYP1A2h (Homo sapiens, UniProt P05177); test: Fluorescence-based CYP assay, recombinant CYP1A2h, substrate CEC
T1 sequence (P05177 1-516): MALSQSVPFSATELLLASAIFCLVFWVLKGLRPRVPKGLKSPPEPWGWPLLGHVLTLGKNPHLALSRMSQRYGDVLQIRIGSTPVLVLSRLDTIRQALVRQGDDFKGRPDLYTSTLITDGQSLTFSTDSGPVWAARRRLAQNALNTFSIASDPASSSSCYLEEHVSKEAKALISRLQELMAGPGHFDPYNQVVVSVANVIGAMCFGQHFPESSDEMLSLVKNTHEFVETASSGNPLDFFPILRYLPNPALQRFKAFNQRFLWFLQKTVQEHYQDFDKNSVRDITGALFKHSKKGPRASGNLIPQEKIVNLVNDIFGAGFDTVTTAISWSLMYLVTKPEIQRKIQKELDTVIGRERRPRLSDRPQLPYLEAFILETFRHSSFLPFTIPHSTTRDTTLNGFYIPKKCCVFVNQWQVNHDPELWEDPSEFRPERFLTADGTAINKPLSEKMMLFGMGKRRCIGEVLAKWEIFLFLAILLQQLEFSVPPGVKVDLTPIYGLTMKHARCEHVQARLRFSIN
Protocol: (§1) These assays were performed by methods similar to those described by VanAlstine and Hough, Stresser et al., Wulff et al., Henderson et al., and Crespi et al., with minor modifications. All incubations were performed in a final volume of 200 µL of 50 mM potassium phosphate buffer at pH 7.4 containing 1% acetonitrile. CYP inhibitor studies were performed according to the parameters of Table 1. Substrate concentrations were chosen to be near known Km values. As described in the references cited, two different NADPH regenerating systems were used depending on the substrates used (Table 1). […] Samples were pre-incubated at 37°C for the designated times, and the reactions were initiated with the addition of a substrate and enzyme mixtures (Table 1). […] For the assays utilizing the “high” regenerating system, enzyme reactions were terminated at the designated time by the addition of 75 µL of 2N NaOH, followed by a 2 h post-incubation at 37°C. Product formation was then measured at the designated wavelengths (Table 1). For the “low” regenerating system assays, blanks and standards were prepared in 0.1 mL buffer without the regenerating system. For the “high” regenerating system assays, blanks and standards containing 0.1 mL of buffer received 75 µL of 2N NaOH following pre-incubation.

CYP3A4 = CYP3A4 (Homo sapiens, UniProt P08684); test: Fluorescence-based CYP3A4 assay with DBF as substrate
Sequence of CYP3A4 (P08684 whole entry): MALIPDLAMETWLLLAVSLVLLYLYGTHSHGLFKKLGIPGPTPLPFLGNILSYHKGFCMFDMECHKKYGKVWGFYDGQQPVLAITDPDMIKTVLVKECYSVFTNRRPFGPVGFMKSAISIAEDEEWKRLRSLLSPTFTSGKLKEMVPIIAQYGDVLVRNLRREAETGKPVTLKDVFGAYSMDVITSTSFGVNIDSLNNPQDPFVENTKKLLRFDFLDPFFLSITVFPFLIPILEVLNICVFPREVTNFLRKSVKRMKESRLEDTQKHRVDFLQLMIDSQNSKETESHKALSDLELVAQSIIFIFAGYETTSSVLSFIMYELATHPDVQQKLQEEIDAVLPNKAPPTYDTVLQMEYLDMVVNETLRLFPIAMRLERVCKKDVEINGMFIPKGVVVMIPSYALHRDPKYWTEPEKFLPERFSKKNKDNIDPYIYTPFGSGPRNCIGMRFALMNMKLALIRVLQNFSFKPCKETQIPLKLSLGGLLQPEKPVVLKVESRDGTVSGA
Protocol: as §1

CYP2B6 = biological target: T2, CYP2B6 (Homo sapiens, UniProt P20813); test: Fluorescence-based CYP assay, recombinant CYP2B6, substrate EFC
T2 sequence (P20813 1-491): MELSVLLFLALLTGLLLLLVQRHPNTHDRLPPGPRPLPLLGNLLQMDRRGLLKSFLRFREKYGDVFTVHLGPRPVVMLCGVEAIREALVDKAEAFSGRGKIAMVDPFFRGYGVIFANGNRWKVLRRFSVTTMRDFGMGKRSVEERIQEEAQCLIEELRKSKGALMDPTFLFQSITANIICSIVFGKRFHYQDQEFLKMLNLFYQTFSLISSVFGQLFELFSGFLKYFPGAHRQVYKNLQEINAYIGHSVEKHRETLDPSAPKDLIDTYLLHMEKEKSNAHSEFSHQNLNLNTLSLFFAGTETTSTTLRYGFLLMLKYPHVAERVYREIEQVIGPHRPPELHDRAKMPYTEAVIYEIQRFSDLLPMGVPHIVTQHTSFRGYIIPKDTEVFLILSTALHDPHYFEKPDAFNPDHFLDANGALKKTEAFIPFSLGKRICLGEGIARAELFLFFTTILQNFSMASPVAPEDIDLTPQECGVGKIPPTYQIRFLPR
Protocol: These assays were performed by methods similar to those described by VanAlstine and Hough, Stresser et al., Wulff et al., Henderson et al., and Crespi et al., with minor modifications. All incubations were performed in a final volume of 200 µL of 50 mM potassium phosphate buffer at pH 7.4 containing 1% acetonitrile. CYP inhibitor studies were performed according to the parameters of Table 1. Substrate concentrations were chosen to be near known Km values. As described in the references cited, two different NADPH regenerating systems were used depending on the substrates used (Table 1). Inhibitors were added to either “low” NADPH-regenerating system (final concentration of 8.1 µM NADP^+, 0.4 mM glucose-6-phosphate, 0.4 mM magnesium chloride, 0.2 U/mL glucose-6-phosphate dehydrogenase) or to “high” NADPH-regenerating system (final concentration of 1.3 mM NADP^+, 3.3 mM glucose-6-phosphate, 3.3 mM magnesium chloride, 0.4 U/mL glucose-6-phosphate dehydrogenase) in a total of 0.1 mL buffer. […] For assays utilizing “low” regenerating systems, product formation was monitored continuously by a Victor3 1420 Multilabel Plate Counter at the designated wavelengths (Table 1). […] Product formation was then measured at the designated wavelengths (Table 1). […]

CYP1A2r = biological target: T3, CYP1A2r (Rattus norvegicus, UniProt P04799); test: Fluorescence-based CYP assay, recombinant CYP1A2r, substrate EFC
T3 sequence (P04799 1-513): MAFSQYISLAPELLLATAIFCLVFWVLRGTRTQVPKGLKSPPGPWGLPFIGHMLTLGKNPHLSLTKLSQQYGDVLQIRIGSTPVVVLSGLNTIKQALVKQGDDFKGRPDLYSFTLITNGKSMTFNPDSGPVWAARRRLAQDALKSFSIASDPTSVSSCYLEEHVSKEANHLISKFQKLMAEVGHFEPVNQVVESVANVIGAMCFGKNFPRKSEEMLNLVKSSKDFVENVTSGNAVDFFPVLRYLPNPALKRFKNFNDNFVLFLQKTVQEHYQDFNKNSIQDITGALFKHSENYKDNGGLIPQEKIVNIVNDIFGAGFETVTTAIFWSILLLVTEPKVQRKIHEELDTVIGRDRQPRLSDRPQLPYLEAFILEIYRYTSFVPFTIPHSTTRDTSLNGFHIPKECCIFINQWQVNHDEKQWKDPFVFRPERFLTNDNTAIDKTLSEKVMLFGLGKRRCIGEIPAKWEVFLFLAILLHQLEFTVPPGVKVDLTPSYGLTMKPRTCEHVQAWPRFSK
Protocol: as §1

Which results are given for `Clc1ccccc1C(c1ccccc1)(c1ccccc1)n1cccn1` [TRAM-34, 1-[(2-chlorophenyl)diphenylmethyl]-1H-pyrazole]?
IC50 (CYP1A2h): > 80 µM; Inhibition of CYP1A2h (in words) (CYP1A2h; up to 80 µM): little to no inhibition; also recorded: no inhibitory effects; IC50 (CYP3A4): 3.6 µM; IC50 (CYP2B6): 0.9 µM; IC50 (CYP1A2r): > 80 µM; Inhibition of CYP1A2r (in words) (CYP1A2r; concentrations up to 80 µM): no inhibition; also recorded: no inhibitory effects

Which “Inhibition of CYP2B6 (in words)” value (CYP2B6; positive control) does the source give for `Clc1ccccc1C(c1ccccc1)(c1ccccc1)n1ccnc1` [Clotrimazole] here?
Its value is “potent inhibitor”.

And the “Inhibition of CYP1A2r (in words)” value (CYP1A2r; clotrimazole concentration-response, Fig. 1C)?
Its value is “only partly inhibited”.
